Several values for one entry are separate records, joined by “and”; a condition that tells them apart may be missing. Equal entries are not always repeated.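 Growth conditions: 96-well plates. Treatment: test compound, 48 hours, 5 concentrations. Analysis: linear interpolation between bracketing concentrations; unreached endpoints set to highest concentration. GI50 is the concentration that inhibits growth by half. TGI: total growth inhibition.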
Tests used:
Experiment in all cases: growth of human tumour cells (NCI), 48 h
[1] = system: LOX IMVI melanoma
[2] = system: MALME-3M melanoma
[3] = system: OVCAR-8 ovarian
[4] = system: SK-MEL-28 melanoma
[5] = system: TK-10 renal
[6] = system: HCC-2998 colon
[7] = system: CCRF-CEM leukemia
[8] = system: CAKI-1 renal
[9] = system: UACC-62 melanoma
[10] = system: OVCAR-5 ovarian

Row | SMILES | TGI [1] | TGI [2] | TGI [3] | TGI [4] | TGI [5] | TGI [6] | TGI [7] | TGI [8] | TGI [9] | TGI [10] | GI50 [2] | GI50 [4]
1 | CCOC(=O)CCc1cn2cc(Br)nc(OC)c2n1 | > 100 µM | > 100 µM | > 100 µM | > 100 µM | > 100 µM | > 100 µM | > 100 µM | > 100 µM | > 100 µM |  |  | 
2 | O=C1c2ccncc2C(=O)c2c(O)ccc(O)c21 | 18.3 µM | 5.44 µM | 21.4 µM | 26.7 µM | 42.3 µM | 16.3 µM | 32.7 µM |  | 10.6 µM | 29.9 µM |  | 
3 | O=C1CC(c2ccsc2)n2cccc21 (centres undefined) |  |  | > 100 µM | > 100 µM | > 100 µM | > 100 µM | > 100 µM | > 100 µM | > 100 µM | > 100 µM |  | 
4 | Cc1ccc(N2C(=O)C3CSCN3C2=O)cc1 (centres undefined) | > 100 µM | > 100 µM | > 100 µM | > 100 µM and 31.2 µM |  | > 100 µM | > 100 µM | > 100 µM | > 100 µM | > 100 µM | > 100 µM | > 100 µM
5 | c1ccc2c[n+](CCCC[n+]3ccc4ccccc4c3)ccc2c1 | > 100 µM |  | > 100 µM | > 100 µM | > 100 µM | > 100 µM | > 100 µM | > 100 µM | > 100 µM | > 100 µM |  | 
6 | O=c1cc(N2CCOCC2)n2c(ccc3ccccc32)n1 | > 100 µM | > 100 µM | > 100 µM |  | > 100 µM | > 100 µM | > 100 µM | > 100 µM | > 100 µM | > 100 µM |  | 
7 | CCC1=C(C[C@H]2NCCc3cc(OC)c(OC)cc32)C[C@H]2c3cc(OC)c(OC)cc3CCN2C1 |  | 0.637 µM | 0.137 µM | 0.192 µM |  | 0.0964 µM |  | 0.199 µM | 0.138 µM | 0.49 µM |  | 
8 | Cc1cn(C2CC(COCc3ccccc3)N(CCO[Si](C)(C)C(C)(C)C)O2)c(=O)[nH]c1=O (centres undefined) |  | 34.3 µM | 28.8 µM | 34.7 µM | 27.3 µM |  |  | 32.7 µM | 24.3 µM | 32 µM |  | 
9 | CCOC(=O)C1CCC(=O)N1C(=O)c1cccc(Cl)c1 (centres undefined) | > 100 µM | > 100 µM | > 100 µM | > 100 µM | > 100 µM |  | > 100 µM | > 100 µM | 62.4 µM | > 100 µM |  | 
10 | C/C(=N\Nc1nc2ccccc2[nH]1)c1ncccn1 | > 100 µM | 8.89 µM | > 39 µM |  | > 78.1 µM | > 100 µM | > 100 µM | 23.7 µM | 2.88 µM | > 100 µM |  | 
11 | CC(C)[C@H](C)/C=C/[C@@H](C)C1CC[C@H]2[C@@]34C=C[C@]5(C[C@@H](O)CC[C@]5(C)[C@H]3CC[C@]12C)OO4 (some centres undefined) | 41.6 µM |  | 66.4 µM | > 100 µM | > 100 µM | 50.9 µM |  | 55.3 µM | 43.6 µM | > 100 µM |  | 
12 | Oc1ccc(Cl)cc1-c1cc(-c2ccccc2)nc(=S)[nH]1 | > 100 µM | > 100 µM | > 100 µM | > 100 µM | 68.7 µM | > 100 µM | > 100 µM | > 100 µM |  | > 100 µM |  | 
13 | C=C(Br)C[N+]12CN3CN(CN(C3)C1)C2 | > 100 µM | > 100 µM | > 100 µM | > 100 µM |  | > 100 µM | > 100 µM | > 100 µM | > 100 µM | > 100 µM |  | 
14 | Cc1nc2ccc(Cl)cc2c2c1CCO2 | > 100 µM | > 100 µM | > 100 µM | > 100 µM | > 100 µM | > 100 µM | > 100 µM | 79.6 µM | > 100 µM |  |  | 
15 | C/C(=C\Cc1ccc(F)cc1)CCCCCC/C(C)=C/Cc1ccc(F)cc1 | 19.9 µM |  | 39.6 µM |  | 29.5 µM |  | 42.6 µM | 25.5 µM | 33 µM | 37.9 µM |  | 
16 | [N-]=[N+]=Nc1nc2ccccc2c(N=[N+]=[N-])c1Cl | > 100 µM | > 100 µM |  | > 100 µM | > 100 µM | > 100 µM | > 100 µM | > 100 µM | > 100 µM | > 100 µM |  | 
17 | Cn1c2ccccc2n2c3ncccc3c(=O)cc12 | > 100 µM | > 100 µM | > 100 µM | > 100 µM | > 100 µM |  |  | > 100 µM |  | > 100 µM |  | 
18 | Clc1ccc(-c2nn3c(COc4cccc(OCc5nnc6sc(-c7ccc(Cl)cc7)nn56)c4)nnc3s2)cc1 | > 100 µM | 50.4 µM | > 100 µM | 35.9 µM | > 100 µM | 96.2 µM |  | 48.8 µM | 77.1 µM | 74.4 µM |  | 
19 | CC(C)(C)OC(=O)C(C#N)C(=O)c1ccc(C(=O)O)[nH]1 (centres undefined) | > 100 µM | > 100 µM | > 100 µM | > 100 µM | > 100 µM |  | > 100 µM | 41.5 µM | 45.7 µM | > 100 µM |  | 
20 | O=Nc1c(-c2c(O)[nH]c3ccc(I)cc23)[nH]c2ccccc12 | > 24.5 µM | > 32.7 µM | > 43.4 µM | > 100 µM | > 41.5 µM |  | 5.07 µM | > 100 µM | 4.45 µM | > 27.1 µM |  | 
21 | O=C1C=CC2(O[C@H](C3CCCCC3)[C@@H](C3CCCCC3)O2)C(SC(=O)c2ccccc2)C1 (some centres undefined) | 5.92 µM | 10.5 µM | 13.9 µM | 3.15 µM | 5.62 µM | 5.52 µM | 5.87 µM |  | 8.57 µM | 6.32 µM |  | 
22 | CC(C)OP(=O)(OC(C)C)C(C(C)C)N(C)C(N)=NC#N (centres undefined) | > 100 µM | > 100 µM | > 100 µM | > 100 µM | > 100 µM | > 100 µM | > 100 µM | > 100 µM | > 100 µM |  |  | 
23 | CC(=O)CC(=O)N1CCSC1=S | > 10 µM | > 10 µM | > 10 µM | > 10 µM | > 10 µM | > 10 µM | > 10 µM |  | > 10 µM | > 10 µM |  | 

— PubChem BioAssay (NCI)
